Results as given in US10189794B2, “Heteroaryl compounds and uses thereof” (Celgene CAR LLC, priority 2013, dated 2019).
Where two headings read alike, the source gives them in different places.

What was measured:
Huh7 cells = experiment: Cell proliferation, Huh7 (CellTiter Glo); type: cell-based; details: Homo sapiens, read-out: Cell Proliferation GI50 (nM) HUH
Method: The growth inhibition (GI50) values were determined by Graph Pad Prism.

MDA-MB-453 cells = experiment: Cell proliferation, MDA-MB-453 (CellTiter Glo); type: cell-based; details: Homo sapiens, read-out: Cell Proliferation GI50 (nM) MDA
Method: For both MDA-MB-453 and Huh7 cells the starting density was 5000 cells per well. The cells were allowed to settle down for 4 hr and were then treated with 5, 1.25, 0.31, 0.078, 0.020 or 0.005 μM of test compound for: 96 hr for MDA-MB-453 and 120 hr for Huh7 cells. Cell viability was determined by CellTiter Glo (Promega, Madison, Wis.) and the results were converted to cell numbers using a standard curve. The growth inhibition (GI50) values were determined by Graph Pad Prism.
The results of these experiments show the ability of compounds to inhibit cell growth in FGFR dependant cell lines and are depicted in Table 8, in the columns titled “Cell Proliferation GI50 (nM)”. MDA-MB-453 cell results fall under the heading “MDA” and Huh7 cell results fall under the heading “Huh.”

FGFR4-WT = FGFR4-WT (Homo sapiens (Human), UniProt P22455); experiment: Omnia assay for potency assessment against FGFR4 enzyme; type: biochemical; details: read-out: FGFR4 IC50
Chain of FGFR4-WT (P22455 22-802): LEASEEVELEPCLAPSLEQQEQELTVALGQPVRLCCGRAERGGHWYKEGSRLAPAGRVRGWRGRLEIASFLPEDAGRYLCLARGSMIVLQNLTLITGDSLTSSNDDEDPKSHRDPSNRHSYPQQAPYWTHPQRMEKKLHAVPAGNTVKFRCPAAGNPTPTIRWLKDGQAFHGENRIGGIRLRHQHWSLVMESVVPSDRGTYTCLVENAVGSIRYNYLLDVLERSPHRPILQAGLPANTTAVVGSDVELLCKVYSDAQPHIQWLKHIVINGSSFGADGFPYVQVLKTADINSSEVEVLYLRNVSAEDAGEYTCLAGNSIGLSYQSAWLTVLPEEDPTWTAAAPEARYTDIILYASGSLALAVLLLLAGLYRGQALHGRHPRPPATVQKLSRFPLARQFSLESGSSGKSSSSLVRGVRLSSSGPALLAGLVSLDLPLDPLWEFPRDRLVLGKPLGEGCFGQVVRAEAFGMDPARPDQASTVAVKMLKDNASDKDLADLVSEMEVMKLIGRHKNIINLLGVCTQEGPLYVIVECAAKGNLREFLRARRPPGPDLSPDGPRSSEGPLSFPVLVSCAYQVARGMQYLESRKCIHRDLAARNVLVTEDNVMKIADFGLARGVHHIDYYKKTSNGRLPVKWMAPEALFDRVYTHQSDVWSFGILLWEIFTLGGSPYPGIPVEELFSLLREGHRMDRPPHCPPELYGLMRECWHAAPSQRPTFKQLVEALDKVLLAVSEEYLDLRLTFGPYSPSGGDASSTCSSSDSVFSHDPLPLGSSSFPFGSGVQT
Method: A 10× stock solution of FGFR4-WT (PR4380C), (from Invitrogen, Carlsbad, Calif.) corresponding to method a in Table 7, was prepared as described below. Alternatively, a 10× stock solution of FGFR4-WT (F01-11G), (SignalChem, Richmond, BC) corresponding to method b in Table 7, was prepared as described below. A solution of 1.4×ATP (AS001A) and 5×Tyr-Sox conjugated peptide substrate (KNZ3101) were prepared in IX kinase reaction buffer consisting of 20 mM Tris, pH 7.5, 5 mM MgCl2, 1 mM EGTA, 5 mM β-glycerophosphate, 5% glycerol (10× stock, KB002A) and 0.2 mM DTT (DS001A). […] The serially diluted compounds were prepared on a Tecan EVO100. A second addition of 10 μl of Tyr-Sox FGFR4 substrate was added to each well and the kinase reactions were started with the addition of 35 μL of 1.4×ATP. The reactions were monitored every 71 seconds for 240 minutes at λex360/λem485 in a Synergy plate reader from BioTek (Winooski, Vt.).

[1] = method a: Invitrogen FGFR4-WT 10 nM, ATP 300 uM, Y10-Sox 10 uM

Structure (SMILES)	GI50 (Huh7 cells; Huh-7, Huh7, 120 hr) [nM]	GI50 (MDA-MB-453 cells; MDA-MB-453, 96 hr) [nM]	IC50 (FGFR4-WT; [1]) [nM]	other results
C=CC(=O)NC1CCCCC1Nc1ncc2c(n1)N(Cc1cccc(NC(=O)CC)c1)C(=O)N(c1c(Cl)c(OC)cc(OC)c1Cl)C2 (racemic) [I-8]	101 to 500	< 100		
C=CC(=O)NC1CCCCC1Nc1ncc2c(n1)N(C)C(=O)N(c1cc(OC)cc(OC)c1)C2 (racemic) [I-18]				IC50 (FGFR4-WT; method b: SignalChem FGFR4-WT 2.5 nM, ATP 250 uM, Y10-Sox 10 uM): > 1000 nM
C=CC(=O)NC1CCCCC1Nc1ncc2c(n1)N(C)C(=O)N(c1c(Cl)c(OC)cc(OC)c1Cl)C2 (racemic) [I-19]	501 to 999	101 to 500		
C=CC(=O)N(C)C1CCCCC1Nc1ncc2c(n1)N(C)C(=O)N(c1cc(OC)cc(OC)c1)C2 (racemic) [I-39]			> 1000	
C=CC(=O)NC1CCCCC1Nc1ncc2c(n1)N(C1CCCN(C(=O)OC(C)(C)C)C1)C(=O)N(c1cc(OC)cc(OC)c1)C2 (racemic) [I-45]			> 1000	
C=CC(=O)NC1CCCCC1Nc1ncc2c(n1)N(C1CCCNC1)C(=O)N(c1cc(OC)cc(OC)c1)C2 (racemic) [I-46]			> 1000	
C=CC(=O)NC1CCCCC1Nc1ncc2c(n1)N(C1CCC1)C(=O)N(c1c(Cl)c(OC)cc(OC)c1Cl)C2 (racemic) [I-70]			< 100	
C=CC(=O)NC1CCCCC1Nc1ncc2c(n1)N(Cc1cccc(NS(C)(=O)=O)c1)C(=O)N(c1c(Cl)c(OC)cc(OC)c1Cl)C2 (racemic) [I-89]			< 100	
C=CC(=O)NC1CCCC1Nc1ncc2c(n1)N(C)C(=O)N(c1c(Cl)c(OC)cc(OC)c1Cl)C2 (racemic) [I-112]			< 100	
C=CC(=O)NC1CC=CCC1Nc1ncc2c(n1)N(C)C(=O)N(c1c(Cl)c(OC)cc(OC)c1Cl)C2 (racemic) [I-113]	501 to 999		< 100	
C=CC(=O)NC1CCCCC1Nc1ncc2c(n1)N(CC1CC1)C(=O)N(c1c(Cl)c(OC)cc(OC)c1Cl)C2 (racemic) [I-129]			< 100	
C=CC(=O)Nc1cc(C(F)(F)F)ccc1Nc1ncc2c(n1)N(Cc1ccccc1)C(=O)N(c1c(Cl)c(OC)cc(OC)c1Cl)C2 [I-6]	101 to 500	< 100		
C=CC(=O)Nc1ccccc1Nc1ncc2c(n1)N(Cc1cccc(OC)c1)C(=O)N(c1c(Cl)c(OC)cc(OC)c1Cl)C2 [I-28]			< 100	
C=CC(=O)Nc1ccccc1Nc1ncc2c(n1)N(CC#N)C(=O)N(c1cc(OC)cc(OC)c1)C2 [I-48]	> 1000	501 to 999		
C=CC(=O)N(C)C1CCCCC1Nc1ncc2c(n1)N(C)C(=O)N(c1c(Cl)c(OC)cc(OC)c1Cl)C2 (centres unmarked) [I-53]			< 100	
C=CC(=O)Nc1cc(N2CCN(C(=O)OC(C)(C)C)CC2)ccc1Nc1ncc2c(n1)N(C)C(=O)N(c1c(Cl)c(OC)cc(OC)c1Cl)C2 [I-62]			< 100	
C=CC(=O)Nc1ccccc1Nc1ncc2c(n1)N(Cc1cscn1)C(=O)N(c1cc(OC)cc(OC)c1)C2 [I-64]	> 1000	101 to 500		
C=CC(=O)Nc1ccccc1Nc1ncc2c(n1)N(C)C(=O)N(c1c(Cl)cccc1Cl)C2 [I-83]	> 1000	501 to 999		
C=CC(=O)Nc1ccccc1Nc1ncc2c(n1)N(C1CCNCC1)C(=O)N(c1c(Cl)c(OC)cc(OC)c1Cl)C2 [I-85]				GI50 (Huh7 cells; Huh-7, 120 h): 101 to 500 nM; GI50 (MDA-MB-453 cells; MDA-MB-453, 96 h): < 100 nM
C=CC(=O)Nc1ccccc1Nc1ncc2c(n1)N(Cc1ccnc(N)c1)C(=O)N(c1cc(OC)cc(OC)c1)C2 [I-87]	101 to 500	< 100		
C=CC(=O)Nc1ccccc1Nc1ncc2c(n1)N(C1COC1)C(=O)N(c1cc(OC)cc(OC)c1)C2 [I-88]	> 1000	501 to 999		
C=CC(=O)N[C@H]1CCCC[C@H]1Nc1ncc2c(n1)N(C)C(=O)N(c1c(Cl)c(OC)cc(OC)c1Cl)C2 [I-95]	501 to 999	101 to 500		

Structure (SMILES)	GI50 (Huh7 cells; Huh-7, Huh7, 120 hr) [nM]	GI50 (MDA-MB-453 cells; MDA-MB-453, 96 hr) [nM]	IC50 (FGFR4-WT; [1]) [nM]	other results
C=CC(=O)Nc1ccccc1Nc1ncc2c(n1)N(Cc1cccc(C(N)=O)c1)C(=O)N(c1cc(OC)cc(OC)c1)C2 [I-97]	> 1000	101 to 500		
C=CC(=O)Nc1ccccc1Nc1ncc2c(n1)N(CC1CC1)C(=O)N(c1cc(OC)cc(OC)c1)C2 [I-98]	> 1000	101 to 500		
C=CC(=O)Nc1ccccc1Nc1ncc2c(n1)N(CC(F)F)C(=O)N(c1cc(OC)cc(OC)c1)C2 [I-99]	> 1000	101 to 500		
C=CC(=O)Nc1ccccc1Nc1ncc2c(n1)N(CC1CC1)C(=O)N(c1cc(OC)cc(OC)c1Cl)C2 [I-100]	501 to 999	101 to 500		
C=CC(=O)Nc1ccccc1Nc1ncc2c(n1)N(CC(F)F)C(=O)N(c1c(Cl)c(OC)cc(OC)c1Cl)C2 [I-103]	101 to 500	< 100		
C=CC(=O)Nc1ccccc1Nc1ncc2c(n1)N(CC(F)F)C(=O)N(c1cc(OC)cc(OC)c1Cl)C2 [I-104]	101 to 500	< 100		
C=CC(=O)Nc1ccccc1Nc1ncc2c(n1)N(CCF)C(=O)N(c1cc(OC)cc(OC)c1Cl)C2 [I-110]	501 to 999	101 to 500		
C=CC(=O)Nc1ccccc1Nc1ncc2c(n1)N(CC(F)F)C(=O)N(c1c(F)c(OC)cc(OC)c1F)C2 [I-116]	101 to 500	< 100		
CCC(=O)N[C@H]1CCCC[C@H]1Nc1ncc2c(n1)N(Cc1cscn1)C(=O)N(c1c(Cl)c(OC)cc(OC)c1Cl)C2 [I-118]			> 1000	
C=CC(=O)N[C@@H]1CCCC[C@@H]1Nc1ncc2c(n1)N(Cc1cscn1)C(=O)N(c1c(Cl)c(OC)cc(OC)c1Cl)C2 [I-119]				IC50 (FGFR4-WT): > 1000 nM
C=CC(=O)Nc1ccccc1Nc1ncc2c(n1)N(Cc1cn[nH]c1)C(=O)N(c1cc(OC)cc(OC)c1)C2 [I-121]	501 to 999	101 to 500		
C=CC(=O)Nc1ccccc1Nc1ncc2c(n1)N(Cc1cn[nH]c1)C(=O)N(c1c(Cl)c(OC)cc(OC)c1Cl)C2 [I-124]	101 to 500	< 100		
C=CC(=O)Nc1ccccc1Nc1ncc2nc(-c3cc(OC)cc(OC)c3)c(=O)n(C)c2n1 [I-128]			101 to 500	
C=CC(=O)Nc1ccccc1Nc1ncc2c(n1)N(C)C(=O)N(c1c(F)c(OC)cc(OC)c1F)C2 [I-131]	101 to 500	< 100		
C=CC(=O)NC1CCCCC1Nc1ncc2c(n1)N(Cc1ccnc(N)c1)C(=O)N(c1c(Cl)c(OC)cc(OC)c1Cl)C2 (centres unmarked) [I-133]	101 to 500	< 100		
C=CC(=O)Nc1ccccc1Nc1ncc2c(n1)N(Cc1ccn(C)n1)C(=O)N(c1c(Cl)c(OC)cc(OC)c1Cl)C2 [I-136]		< 100		
C=CC(=O)N[C@H]1CCCC[C@H]1Nc1ncc2c(n1)N(Cc1cnn(C)c1)C(=O)N(c1c(Cl)c(OC)cc(OC)c1Cl)C2 [I-148]			< 100	
C=CC(=O)Nc1ccccc1Nc1ncc2c(n1)N(Cc1cnn(C)c1)C(=O)N(c1c(Cl)c(OC)cc(OC)c1Cl)C2 [I-149]	< 100		< 100	
C=CC(=O)Nc1ccccc1Nc1ncc2cc(-c3cc(OC)cc(OC)c3)c(N)nc2n1 [I-155]			< 100	
C=CC(=O)NC1COCC1Nc1ncc2c(n1)N(Cc1cn[nH]c1)C(=O)N(c1c(Cl)c(OC)cc(OC)c1Cl)C2 (centres unmarked) [I-214]	101 to 500			IC50 (FGFR4-WT): < 100 nM
C=CC(=O)N[C@H]1CCCC[C@H]1Nc1ncc2c(n1)N(C)C(=O)N(c1c(Cl)c(OC)c(OC)c(OC)c1Cl)C2 [I-221]			> 1000	
